Several values for one entry are separate records, joined by “and”; a condition that tells them apart may be missing. Identical values can stand only once.
Target: CYP 2C9 (Homo sapiens, UniProt P11712)
Assay: Kinetics of fluorogenic substrates with CYP 2C9
Assay type: biochemical
Details: CYP 2C9

CYP 2C9, sequence (P11712 whole entry): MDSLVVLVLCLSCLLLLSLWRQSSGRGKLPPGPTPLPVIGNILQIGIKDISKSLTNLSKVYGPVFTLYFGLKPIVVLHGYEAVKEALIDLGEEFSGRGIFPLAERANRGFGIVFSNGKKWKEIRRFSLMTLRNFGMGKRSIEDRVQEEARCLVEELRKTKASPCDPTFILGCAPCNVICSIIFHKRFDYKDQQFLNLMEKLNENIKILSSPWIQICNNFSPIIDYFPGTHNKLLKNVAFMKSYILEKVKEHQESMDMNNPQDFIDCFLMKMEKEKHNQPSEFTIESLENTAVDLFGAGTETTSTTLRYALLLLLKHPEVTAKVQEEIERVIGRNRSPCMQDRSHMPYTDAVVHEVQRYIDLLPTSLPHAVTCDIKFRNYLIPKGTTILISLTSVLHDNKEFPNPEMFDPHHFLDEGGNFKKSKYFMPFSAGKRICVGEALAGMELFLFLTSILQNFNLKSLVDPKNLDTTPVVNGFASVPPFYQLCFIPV

Row | SMILES | kcat | kcat/Km | conversion to the same fluorescent product vs the most closely structurally-related substrate | type of kinetics
1 | CCCCCCCCOCOc1ccc2nc3ccc(=O)cc-3oc2c1 [OOMR, Octyloxymethylresorufin] | 0.0067 s⁻¹ | 2564 M⁻¹ s⁻¹ | – | –
2 | COc1ccc(COc2ccc3c(C(F)(F)F)cc(=O)oc3c2)cc1 [MOBFC] | 0.00483 s⁻¹ and 0.005 s⁻¹ | 628 M⁻¹ s⁻¹ | more efficient conversion | Michaelis-

The next lines start with the values.

Row | kcat | kcat/Km | conversion to the same fluorescent product vs the most closely structurally-related substrate | type of kinetics | SMILES
3 | 0.0033 s⁻¹ | 167 M⁻¹ s⁻¹ | more efficient conversion | Michaelis | COCOc1ccc2cc(C#N)c(=O)oc2c1 [MOMCC]
4 | 0.035 s⁻¹ | – | more efficient conversion | Michaelis- | N#Cc1cc2ccc(OCOCc3ccccc3)cc2oc1=O [BOMCC, 7-Benzyloxymethyloxy-3-cyanocoumarin]
5 | 0.0067 s⁻¹ | 85 M⁻¹ s⁻¹ | – | linear | COc1ccc2cc(C#N)c(=O)oc2c1 [3CMC, 3-cyano-7-methoxycoumarin, reference compound]

Same assay, conditions: CYP 2C9, substrate 1.25 uM

Row | SMILES | v (1.25 uM), turnover rate at 1.25 μM
6 | CCCCCCCCOCOc1ccc2nc3ccc(=O)cc-3oc2c1 [OOMR, Octyloxymethylresorufin] | 0.137 min⁻¹
7 | COc1ccc(COc2ccc3c(C(F)(F)F)cc(=O)oc3c2)cc1 [MOBFC] | 0.02 min⁻¹

Now from value to compound:

Row | v (1.25 uM), turnover rate at 1.25 μM | SMILES
8 | 0.01 min⁻¹ | COCOc1ccc2cc(C#N)c(=O)oc2c1 [MOMCC]
9 | 0.04 min⁻¹ | N#Cc1cc2ccc(OCOCc3ccccc3)cc2oc1=O [BOMCC, 7-Benzyloxymethyloxy-3-cyanocoumarin]
10 | 0.00 min⁻¹ | N#Cc1cc2ccc(OCc3ccccc3)cc2oc1=O [BCC, 7-Benzyloxy-3-cyanocoumarin, reference compound]
11 | 0.00 min⁻¹ | COc1ccc2cc(C#N)c(=O)oc2c1 [3CMC, 3-cyano-7-methoxycoumarin, reference compound]

Same assay, conditions: CYP 2C9, substrate 10 uM

Row | SMILES | v (10 uM), turnover rate at 10 μM
12 | CCCCCCCCOCOc1ccc2nc3ccc(=O)cc-3oc2c1 [OOMR, Octyloxymethylresorufin] | 0.31 min⁻¹
13 | COc1ccc(COc2ccc3c(C(F)(F)F)cc(=O)oc3c2)cc1 [MOBFC] | 0.188 min⁻¹ and 0.19 min⁻¹

The remaining lines, values ahead:

Row | v (10 uM), turnover rate at 10 μM | SMILES
14 | 0.07 min⁻¹ | COCOc1ccc2cc(C#N)c(=O)oc2c1 [MOMCC]
15 | 0.42 min⁻¹ | N#Cc1cc2ccc(OCOCc3ccccc3)cc2oc1=O [BOMCC, 7-Benzyloxymethyloxy-3-cyanocoumarin]
16 | 0.00 min⁻¹ | N#Cc1cc2ccc(OCc3ccccc3)cc2oc1=O [BCC, 7-Benzyloxy-3-cyanocoumarin, reference compound]
17 | 0.04 min⁻¹ | COc1ccc2cc(C#N)c(=O)oc2c1 [3CMC, 3-cyano-7-methoxycoumarin, reference compound]

Target: CYP 2D6 (Homo sapiens, UniProt P10635)
Sequence (P10635 whole entry): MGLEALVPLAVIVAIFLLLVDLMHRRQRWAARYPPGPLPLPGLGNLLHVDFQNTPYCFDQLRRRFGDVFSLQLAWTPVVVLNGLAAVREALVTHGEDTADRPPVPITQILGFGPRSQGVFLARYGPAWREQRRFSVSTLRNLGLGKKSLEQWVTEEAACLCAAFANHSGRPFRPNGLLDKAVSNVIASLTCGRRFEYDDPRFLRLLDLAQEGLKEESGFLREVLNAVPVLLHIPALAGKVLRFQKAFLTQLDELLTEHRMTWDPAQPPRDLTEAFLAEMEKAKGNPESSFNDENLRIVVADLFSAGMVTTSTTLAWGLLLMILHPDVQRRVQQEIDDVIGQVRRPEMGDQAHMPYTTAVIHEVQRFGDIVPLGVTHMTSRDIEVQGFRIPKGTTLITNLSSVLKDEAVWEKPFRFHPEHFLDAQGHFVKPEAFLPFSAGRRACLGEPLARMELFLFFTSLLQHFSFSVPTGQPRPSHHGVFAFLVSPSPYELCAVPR
Assay: Kinetics of fluorogenic substrates with CYP 2D6
Assay type: biochemical
Details: CYP 2D6

Row | kcat | kcat/Km | type of kinetics | SMILES
18 | 0.0017 s⁻¹ | 93 M⁻¹ s⁻¹ | – | CC(C)Oc1ccc2cc(C#N)c(=O)oc2c1 [IPCC]
19 | 0.01 s⁻¹ | 2067 M⁻¹ s⁻¹ | Michaelis- | COc1ccc(COc2ccc3c(C(F)(F)F)cc(=O)oc3c2)cc1 [MOBFC]
20 | 0.00567 s⁻¹ | 708 M⁻¹ s⁻¹ | – | COCOc1ccc2nc3ccc(=O)cc-3oc2c1 [MOMR]

Same assay, conditions: CYP 2D6, substrate 1.25 uM

Row | v (1.25 uM), turnover rate at 1.25 μM | SMILES
21 | 0.0076 min⁻¹ | CC(C)Oc1ccc2cc(C#N)c(=O)oc2c1 [IPCC]
22 | 0.09 min⁻¹ | COc1ccc(COc2ccc3c(C(F)(F)F)cc(=O)oc3c2)cc1 [MOBFC]
23 | 0.03396 min⁻¹ | COCOc1ccc2nc3ccc(=O)cc-3oc2c1 [MOMR]

Same assay, conditions: CYP 2D6, substrate 10 uM

Row | v (10 uM), turnover rate at 10 μM | SMILES
24 | 0.0378 min⁻¹ | CC(C)Oc1ccc2cc(C#N)c(=O)oc2c1 [IPCC]
25 | 0.49 min⁻¹ | COc1ccc(COc2ccc3c(C(F)(F)F)cc(=O)oc3c2)cc1 [MOBFC]
26 | 0.2146 min⁻¹ | COCOc1ccc2nc3ccc(=O)cc-3oc2c1 [MOMR]

Same assay, conditions: CYP 3A4 and CYP 2D6, Table 8

Row | conversion to the same fluorescent product vs the most closely structurally-related substrate | SMILES
27 | more efficient conversion | COc1ccc(COc2ccc3c(C(F)(F)F)cc(=O)oc3c2)cc1 [MOBFC]

Target: CYP 2C19 (Homo sapiens, UniProt P33261)
Sequence (P33261 whole entry): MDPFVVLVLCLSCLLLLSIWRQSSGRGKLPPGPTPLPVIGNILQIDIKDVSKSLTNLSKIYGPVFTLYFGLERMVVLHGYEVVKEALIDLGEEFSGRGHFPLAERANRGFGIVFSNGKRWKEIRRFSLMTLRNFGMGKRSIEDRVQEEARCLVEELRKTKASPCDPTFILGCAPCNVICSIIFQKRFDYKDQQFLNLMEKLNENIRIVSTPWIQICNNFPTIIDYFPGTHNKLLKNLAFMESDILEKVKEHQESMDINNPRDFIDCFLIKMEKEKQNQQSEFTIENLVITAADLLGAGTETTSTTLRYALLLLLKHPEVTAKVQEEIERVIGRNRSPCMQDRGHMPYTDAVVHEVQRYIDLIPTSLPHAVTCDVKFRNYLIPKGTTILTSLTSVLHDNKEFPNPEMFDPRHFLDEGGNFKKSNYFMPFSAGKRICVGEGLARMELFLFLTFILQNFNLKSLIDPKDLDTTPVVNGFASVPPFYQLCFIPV
Assay: Kinetics of fluorogenic substrates with CYP 2C19
Assay type: biochemical
Details: CYP 2C19

Row | SMILES | kcat | kcat/Km | conversion to the same fluorescent product vs the most closely structurally-related substrate | type of kinetics
28 | CCCCCCCCOCOc1ccc2nc3ccc(=O)cc-3oc2c1 [OOMR, Octyloxymethylresorufin] | 0.00283 s⁻¹ | 4048 M⁻¹ s⁻¹ | – | –
29 | CC(C)Oc1ccc2cc(C#N)c(=O)oc2c1 [IPCC] | 0.0325 s⁻¹ | 568 M⁻¹ s⁻¹ | – | –

Now from value to compound:

Row | kcat | kcat/Km | conversion to the same fluorescent product vs the most closely structurally-related substrate | type of kinetics | SMILES
30 | 0.0083 s⁻¹ | 2604 M⁻¹ s⁻¹ | more efficient conversion | Michaelis- | COCOc1ccc2cc(C#N)c(=O)oc2c1 [MOMCC]
31 | 0.0317 s⁻¹ | 2262 M⁻¹ s⁻¹ | more efficient conversion | Michaelis- | N#Cc1cc2ccc(OCOCc3ccccc3)cc2oc1=O [BOMCC, 7-Benzyloxymethyloxy-3-cyanocoumarin]
32 | 0.0017 s⁻¹ | 234 M⁻¹ s⁻¹ | – | Michaelis- | N#Cc1cc2ccc(OCc3ccccc3)cc2oc1=O [BCC, 7-Benzyloxy-3-cyanocoumarin, reference compound]
33 | – | – | – | linear | COc1ccc2cc(C#N)c(=O)oc2c1 [3CMC, 3-cyano-7-methoxycoumarin, reference compound]

Same assay, conditions: CYP 2C19, substrate 1.25 uM

Row | SMILES | v (1.25 uM), turnover rate at 1.25 μM
34 | CCCCCCCCOCOc1ccc2nc3ccc(=O)cc-3oc2c1 [OOMR, Octyloxymethylresorufin] | 0.1 min⁻¹
35 | CC(C)Oc1ccc2cc(C#N)c(=O)oc2c1 [IPCC] | 0.027 min⁻¹
36 | COCOc1ccc2nc3ccc(=O)cc-3oc2c1 [MOMR] | 0.06 min⁻¹

Second part, the compound after the results:

Row | v (1.25 uM), turnover rate at 1.25 μM | SMILES
37 | 0.14 min⁻¹ | COCOc1ccc2cc(C#N)c(=O)oc2c1 [MOMCC]
38 | 0.16 min⁻¹ | N#Cc1cc2ccc(OCOCc3ccccc3)cc2oc1=O [BOMCC, 7-Benzyloxymethyloxy-3-cyanocoumarin]
39 | 0.02 min⁻¹ | N#Cc1cc2ccc(OCc3ccccc3)cc2oc1=O [BCC, 7-Benzyloxy-3-cyanocoumarin, reference compound]
40 | 0.01 min⁻¹ | COc1ccc2cc(C#N)c(=O)oc2c1 [3CMC, 3-cyano-7-methoxycoumarin, reference compound]

Same assay, conditions: CYP 2C19, substrate 10 uM

Row | SMILES | v (10 uM), turnover rate at 10 μM
41 | CCCCCCCCOCOc1ccc2nc3ccc(=O)cc-3oc2c1 [OOMR, Octyloxymethylresorufin] | 0.13 min⁻¹
42 | CC(C)Oc1ccc2cc(C#N)c(=O)oc2c1 [IPCC] | 0.232 min⁻¹
43 | COCOc1ccc2nc3ccc(=O)cc-3oc2c1 [MOMR] | 0.062 min⁻¹

Continued, values first:

Row | v (10 uM), turnover rate at 10 μM | SMILES
44 | 0.38 min⁻¹ | COCOc1ccc2cc(C#N)c(=O)oc2c1 [MOMCC]
45 | 0.68 min⁻¹ | N#Cc1cc2ccc(OCOCc3ccccc3)cc2oc1=O [BOMCC, 7-Benzyloxymethyloxy-3-cyanocoumarin]
46 | 0.06 min⁻¹ | N#Cc1cc2ccc(OCc3ccccc3)cc2oc1=O [BCC, 7-Benzyloxy-3-cyanocoumarin, reference compound]
47 | 0.07 min⁻¹ | COc1ccc2cc(C#N)c(=O)oc2c1 [3CMC, 3-cyano-7-methoxycoumarin, reference compound]

Target: T1, CYP 3A4 (Homo sapiens, UniProt P08684)
T1 construct: NADPH regenerating system
T1 sequence (P08684 whole entry): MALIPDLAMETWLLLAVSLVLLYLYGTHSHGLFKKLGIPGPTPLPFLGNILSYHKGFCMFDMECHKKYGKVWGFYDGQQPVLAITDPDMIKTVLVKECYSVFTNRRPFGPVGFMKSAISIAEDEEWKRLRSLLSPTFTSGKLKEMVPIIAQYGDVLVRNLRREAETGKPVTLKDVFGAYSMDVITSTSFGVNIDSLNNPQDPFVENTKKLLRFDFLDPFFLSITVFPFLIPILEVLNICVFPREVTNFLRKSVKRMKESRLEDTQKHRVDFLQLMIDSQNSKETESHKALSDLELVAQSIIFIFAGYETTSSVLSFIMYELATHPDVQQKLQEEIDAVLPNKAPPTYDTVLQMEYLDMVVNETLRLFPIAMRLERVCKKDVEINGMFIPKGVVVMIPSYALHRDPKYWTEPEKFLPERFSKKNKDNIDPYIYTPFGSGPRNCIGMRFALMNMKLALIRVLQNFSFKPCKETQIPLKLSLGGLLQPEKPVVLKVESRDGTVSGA
Assay: Kinetics of fluorogenic substrates with CYP 3A4
Assay type: biochemical
Details: CYP 3A4
From the text: Whichever of the four abstractable hydrogen atoms (designated H^1 and H^2 in this representation of BOMR) is removed in the initial reaction step, with reference to Reaction Scheme 1 of FIG. 1, the hydroxylation product will spontaneously decompose to the free resorufin dye. In addition, the benzyloxy group, attached to the carbon carrying the two hydrogens designated H^2, contributes an inductive electronic effect on that carbon, which can stabilize the radical formed during abstraction of one of the H^2 hydrogens by a cytochrome P450.
Optimization of assay conditions was, and is preferably, accomplished through statistically validated Design of Experiments methodologies, using the commercial software package "Design-Expert®" produced by Stat-Ease® Inc. The data shown in FIGS. 4 and 5 were obtained with initial optimization.
For further understanding these terms in the context of this invention, attention is directed to FIG. 4 and the analysis of FIG. 4.

Row | kcat | kcat/Km | conversion to the same fluorescent product vs the most closely structurally-related substrate | type of kinetics | SMILES
48 | 0.011 s⁻¹ | 7857 M⁻¹ s⁻¹ | – | – | CCCCCCCCOCOc1ccc2nc3ccc(=O)cc-3oc2c1 [OOMR, Octyloxymethylresorufin]
49 | – | – | more efficient conversion | sigmoidal | N#Cc1cc2ccc(OCOCc3ccccc3)cc2oc1=O [BOMCC, 7-Benzyloxymethyloxy-3-cyanocoumarin]
50 | 0.012 s⁻¹ | 897 M⁻¹ s⁻¹ | – | Michaelis- | COc1ccc(COc2ccc3c(C(F)(F)F)cc(=O)oc3c2)cc1 [MOBFC]
51 | 0.001 s⁻¹ | 167 M⁻¹ s⁻¹ | – | – | COCOc1ccc2nc3ccc(=O)cc-3oc2c1 [MOMR]

Same assay, conditions: CYP 3A4, substrate 1.25 uM

Row | v (1.25 uM), turnover rate at 1.25 μM | SMILES
52 | 0.323 min⁻¹ | CCCCCCCCOCOc1ccc2nc3ccc(=O)cc-3oc2c1 [OOMR, Octyloxymethylresorufin]
53 | 0.12 min⁻¹ | N#Cc1cc2ccc(OCOCc3ccccc3)cc2oc1=O [BOMCC, 7-Benzyloxymethyloxy-3-cyanocoumarin]
54 | 0.0214 min⁻¹ and 0.02 min⁻¹ | COc1ccc(COc2ccc3c(C(F)(F)F)cc(=O)oc3c2)cc1 [MOBFC]
55 | 0.0083 min⁻¹ | COCOc1ccc2nc3ccc(=O)cc-3oc2c1 [MOMR]

Same assay, conditions: CYP 3A4, substrate 10 uM

Row | v (10 uM), turnover rate at 10 μM | SMILES
56 | 0.601 min⁻¹ | CCCCCCCCOCOc1ccc2nc3ccc(=O)cc-3oc2c1 [OOMR, Octyloxymethylresorufin]
57 | 0.98 min⁻¹ | N#Cc1cc2ccc(OCOCc3ccccc3)cc2oc1=O [BOMCC, 7-Benzyloxymethyloxy-3-cyanocoumarin]
58 | 0.3453 min⁻¹ and 0.35 min⁻¹ | COc1ccc(COc2ccc3c(C(F)(F)F)cc(=O)oc3c2)cc1 [MOBFC]
59 | 0.0338 min⁻¹ | COCOc1ccc2nc3ccc(=O)cc-3oc2c1 [MOMR]

Same assay, conditions: CYP 3A4; in parentheses: from Michaelis-Menten fit (sigmoidal kinetics)

Row | kcat | kcat/Km | SMILES
60 | 0.167 s⁻¹ | 1873 M⁻¹ s⁻¹ | N#Cc1cc2ccc(OCOCc3ccccc3)cc2oc1=O [BOMCC, 7-Benzyloxymethyloxy-3-cyanocoumarin]

Target: T2, CYP 2B6 (Homo sapiens, UniProt P20813)
T2 sequence (P20813 1-491): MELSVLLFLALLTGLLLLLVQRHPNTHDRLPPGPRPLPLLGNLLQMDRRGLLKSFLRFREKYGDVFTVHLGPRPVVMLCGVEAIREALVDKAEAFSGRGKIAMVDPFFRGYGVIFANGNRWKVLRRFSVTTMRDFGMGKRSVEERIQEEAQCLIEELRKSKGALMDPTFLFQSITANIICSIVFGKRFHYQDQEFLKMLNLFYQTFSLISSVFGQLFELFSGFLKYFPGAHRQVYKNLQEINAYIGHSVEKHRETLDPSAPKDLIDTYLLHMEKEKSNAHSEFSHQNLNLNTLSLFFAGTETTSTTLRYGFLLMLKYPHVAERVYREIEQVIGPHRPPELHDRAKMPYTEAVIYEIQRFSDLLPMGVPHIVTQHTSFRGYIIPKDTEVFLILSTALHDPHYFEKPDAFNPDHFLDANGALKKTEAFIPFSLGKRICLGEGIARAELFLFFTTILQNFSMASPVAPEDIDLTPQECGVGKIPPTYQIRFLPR
Assay: not given
Details: not given

Row | conversion to the same fluorescent product vs the most closely structurally-related substrate | kcat | kcat/Km | type of kinetics | v (1.25 uM), turnover rate at 1.25 μM | v (10 uM), turnover rate at 10 μM | SMILES
61 | more efficient conversion | 1.1 s⁻¹ | 21154 M⁻¹ s⁻¹ | Michaelis- | 0.38 min⁻¹ | 3.05 min⁻¹ | N#Cc1cc2ccc(OCOCc3ccccc3)cc2oc1=O [BOMCC, 7-Benzyloxymethyloxy-3-cyanocoumarin]
62 | – | 0.0017 s⁻¹ | 1064 M⁻¹ s⁻¹ | Michaelis- | 0.04 min⁻¹ | 0.07 min⁻¹ | N#Cc1cc2ccc(OCc3ccccc3)cc2oc1=O [BCC, 7-Benzyloxy-3-cyanocoumarin, reference compound]
